In one data set the test system is biosimilar ERBITUX®. The data set can be described thus: Viscosity of aqueous solutions of biosimilar ERBITUX® with viscosity-lowering agents. The following applies: for Fold Reduction: vs phosphate buffer.
The test system of another data set is biosimilar AVASTIN®. The data set can be described thus: Viscosity of aqueous solutions of biosimilar AVASTIN® with viscosity-lowering agents. Type of data set: physicochemical. On the procedure: (unless otherwise indicated).
The protein was formulated to contain either 0.25 M phosphate buffer or 0.25 M CSAL.
Subsequently, the appropriate amount of viscosity-lowering agent was added to result in a final viscosity-lowering agent concentration of 0.15-0.35 M upon reconstitution.
The viscosity-lowering agent(s) were added in an amount sufficient to give concentration upon reconstitution as specified below. In cases of combinations of agents, the concentration of each component is 0.15 M. The protein solutions were then freeze-dried.

The subject of a further data set is biosimilar RITUXAN®. The data set can be described thus: Viscosity of aqueous solutions of biosimilar RITUXAN® with viscosity-lowering agents.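 Note: absolute viscosity of aqueous antibody solutions determined by microfluidic viscometry (mVROC chip, 50 micron channel) at several flow rates after 5 min equilibration, mean of at least three readings.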 The following applies: […] agent, 25° C.
Where [1] appears, read: 222 ± 5 mg/mL mAb, pH 7.0, 0.25M agent, 25° C.
Where [2] appears, read: 225 ± 5 mg/mL mAb, pH 7.0, 0.25M agent, 20° C.
[3] abbreviates: 225 ± 5 mg/mL mAb, pH 7.0, 0.25M agent, 25° C.
Setting [4] is: 225 ± 5 mg/mL mAb, pH 7.0, 0.25M agent, 30° C.
The mark [5] stands for this setting: 229 mg/mL mAb, […] agent, pH 7.0, 25° C., microfluidic.
The mark [6] stands for this setting: 230 mg/mL mAb, agent […], 25° C.

Structures can show the parent of a compound that is named as a salt.

Protocol for biosimilar RITUXAN®: All viscosities of well-mixed aqueous mAb solutions were measured using either a mVROC microfluidic viscometer (RheoSense) or a DV2T cone and plate viscometer (Brookfield; “C & P”) after a 5 minute equilibration at 25° C. […] The mVROC viscometer was equipped with an “A” or “B” chip, each manufactured with a 50 micron channel. Typically, 0.10 mL of protein solution was back-loaded into a gastight microlab instrument syringe (Hamilton; 100 μL), affixed to the chip, and measured at multiple flow rates, approximately 20%, 40%, and 60% of the maximum pressure for each chip. […] An average absolute viscosity and standard deviation was then calculated from at least these three measurements. The C & P viscometer was equipped with a CPE40 or CPE52 spindle (cone angle of 0.8° and 3.0°, respectively) and 0.50 mL samples were measured at multiple shear rates between 2 and 400 s^−1. […] An extrapolated zero-shear viscosity was then determined from a plot of dynamic viscosity versus shear rate for the samples measured on a DV2T cone and plate viscometer. The extrapolated zero-shear viscosities reported are the average and standard deviation of at least three measurements.
Viscosities were measured using a RheoSense mVROC microfluidic viscometer equipped with an “A” or “B” chip.

Turning to `NCCCC[C@H](N)C(=O)O.O=S(=O)(O)c1ccccc1` [BSAL, benzenesulfonic acid lysine], the Viscosity in the data set with biosimilar ERBITUX® (setting [1]) turned out to be 126 ± 1 cP; in the data set with biosimilar ERBITUX® (setting [2]), 193 ± 0 cP; with biosimilar ERBITUX® (setting [3]), 126 ± 1 cP; with biosimilar ERBITUX® (setting [4]) it was 89.8 ± 0.8 cP; in the data set on biosimilar AVASTIN® (230 ± 5 mg/mL mAb, pH 7.0, […], 20° C.), 395 ± 3 cP; in the data set on biosimilar AVASTIN® (230 ± 5 mg/mL mAb, pH 7.0, […], 25° C.) it was 227 ± 5 cP.
In the case of `CC1(C)C2CCC1(CS(=O)(=O)O)C(=O)C2.Nc1ccncc1` (centres unmarked) [CSA-4-aminopyridine], the values for the Viscosity in the data set on biosimilar RITUXAN® (195 mg/mL mAb), in the data set on biosimilar RITUXAN® (233 mg/mL mAb) and with biosimilar AVASTIN® (setting [5]) were 47.0 ± 1.4 cP, 66.5 ± 0.8 cP and 86.4 ± 1.1 cP, respectively.
Regarding `Cc1nnc(SCC2=C(C(=O)O)N3C(=O)[C@@H](NC(=O)Cn4cnnn4)[C@H]3SC2)s1` [Cefazolin, reference compound], the Viscosity in the data set on biosimilar RITUXAN® (206 mg/mL mAb) was found to be 65.1 ± 1.8 cP; in the data set with biosimilar AVASTIN® (setting [5]), 60.6 ± 1 cP.
Regarding `Nc1ccn(C[C@@H](CO)OCP(=O)(O)O)c(=O)n1` [Cidofovir hydrate, reference compound], the Viscosity in the data set with biosimilar ERBITUX® (189 mg/mL mAb, 0.02M agent, 25° C.) is listed as 284 ± 5 cP; with biosimilar AVASTIN® (210 mg/mL mAb, agent 0.02M, 25° C.), 121 ± 2 cP.
With `NC(CO)(CO)CO.O=C[C@H](O)[C@@H](O)[C@H](O)[C@H](O)C(=O)O` [Glucuronic acid-tris], the Viscosity with biosimilar RITUXAN® (207 mg/mL mAb) stood at 149 ± 13 cP; in the data set on biosimilar AVASTIN® (221 mg/mL mAb, […] agent, pH 7.0, 25° C., microfluidic), 151 ± 5 cP; in the data set with biosimilar AVASTIN® (221 mg/mL mAb, […] agent, pH 7.0, 25° C., microfluidic, listed as Glucuronic acid-Tris), 151 ± 5.0 cP.
In the case of `CCN(CC)CC(=O)Nc1c(C)cccc1C` [Lidocaine HCl, reference compound], the Viscosity with biosimilar ERBITUX® (223 mg/mL mAb, […] agent, 25° C.) came to 33.8 ± 0.4 cP; with biosimilar AVASTIN® (218 mg/mL mAb, agent […], 25° C.) it was 147 ± 15 cP; in the data set on biosimilar AVASTIN® (237 mg/mL mAb, agent […], 25° C.), 97.3 ± 1.8 cP.
On to `NCCCC[C@H](N)C(=O)O` [Lysine•HCl, reference compound], for which the Viscosity stood at 128 ± 2 cP in the data set on biosimilar ERBITUX® (setting [1]) and 137 ± 2 cP with biosimilar AVASTIN® (200 ± 5 mg/mL mAb, pH 7.0, 25° C., [Salt] 0.25 M of anion, C & P viscometer). For the same compound, the “Fold Reduction” value in the data set on biosimilar ERBITUX® (setting [1]) was 8.8 fold.
Take `Cc1cccc(C)c1NC(=O)C1CCCCN1C` (centres unmarked) [Mepivacaine HCl, reference compound]: the Viscosity in the data set with biosimilar RITUXAN® (185 mg/mL mAb) was 46.8 ± 0.6 cP; with biosimilar AVASTIN® (223 mg/mL mAb, agent […], 25° C.) it was 129 ± 3 cP.
For the compound `CCN(CC)CCNC(=O)c1cc(Cl)c(N)cc1OC` [Metoclopramide HCl, reference compound], the Viscosity amounted to 39.3 ± 0.4 cP with biosimilar RITUXAN® (194 mg/mL mAb) and 64.4 ± 1.6 cP with biosimilar AVASTIN® (setting [6]).
`CNC[C@H](O)c1cccc(O)c1` [Phenylephrine HCl, reference compound]: the Viscosity in the data set with biosimilar ERBITUX® (183 mg/mL mAb, […] agent, 25° C.) is listed as 54.1 ± 2.9 cP; in the data set with biosimilar AVASTIN® (201 mg/mL mAb, agent […], 25° C.), 108 ± 1 cP.
Turning to `CCN1CCN(C(=O)N[C@@H](C(=O)N[C@@H]2C(=O)N3[C@@H]2SC(C)(C)[C@@H]3C(=O)O)c2ccccc2)C(=O)C1=O` [Piperacillin sodium salt, reference compound], the Viscosity in the data set on biosimilar RITUXAN® (194 mg/mL mAb) came to 127 ± 2 cP; in the data set on biosimilar AVASTIN® (206 mg/mL mAb, agent […], 25° C.), 197 ± 5 cP.
Take `ClC=CC[N+]12CN3CN(CN(C3)C1)C2.[Cl-]` [Quaternium 15]: in the data set on biosimilar RITUXAN® (221 mg/mL mAb), the Viscosity was found to be 135 ± 5 cP.
Consider `Cc1cc2nc3c(=O)[nH]c(=O)nc-3n(C[C@H](O)[C@H](O)[C@H](O)COP(=O)([O-])O)c2cc1C.[Na+]` [Riboflavin-5-phosphate], for which the Viscosity in the data set with biosimilar ERBITUX® (237 mg/mL mAb, 0.10M agent, 25° C.) is 492 ± 9 cP; in the data set with biosimilar AVASTIN® (225 mg/mL mAb, agent […], 25° C.), 131 ± 4 cP.
As to `OC[C@H]1O[C@H](O[C@]2(CCl)O[C@H](CCl)[C@@H](O)[C@@H]2O)[C@H](O)[C@@H](O)[C@H]1Cl` [Sucralose], the Viscosity in the data set on biosimilar RITUXAN® (234 mg/mL mAb) was 111 ± 8 cP; with biosimilar AVASTIN® (setting [6]), 147 ± 4 cP.
With `O=P1([O-])OP(=O)([O-])OP(=O)([O-])O1.[Na+].[Na+].[Na+]` [Trimetaphosphate-3Na], the Viscosity in the data set with biosimilar RITUXAN® (199 mg/mL mAb) amounted to 126 ± 3.3 cP; with biosimilar AVASTIN® (211 mg/mL mAb, agent […], 25° C.), 121 ± 6 cP.
Consider CSA-1-o-tolybiguanide, for which the Viscosity with biosimilar RITUXAN® (190 mg/mL mAb) is 40.4 ± 1.9 cP; with biosimilar AVASTIN® (228 mg/mL mAb, agent […], 25° C.) it was 121 ± 1 cP.
Turning to “naphthalenesulfonic acid arginine [NSAA]”, the Viscosity in the data set with biosimilar ERBITUX® (setting [1]) amounted to 69.4 ± 0.6 cP; in the data set with biosimilar ERBITUX® (setting [2]), 103 ± 0 cP; in the data set on biosimilar ERBITUX® (setting [3]), 69.4 ± 0.6 cP; with biosimilar ERBITUX® (setting [4]) it was 60.9 ± 4.3 cP. In addition, the “Fold Reduction” value with biosimilar ERBITUX® (setting [1]) came to 16.3 fold.

Source of the values: patent publication US9925263B2, “Liquid pharmaceutical formulations for injection comprising procaine and uses thereof” (EAGLE BIOLOGICS, INC., priority 2013, dated 2018).
